The conditions of this series: the molecule shown is the open-chain precursor, thioether bond, resin, 4 steps.

Read-outs that look alike come from different tables or passages of the source.

Under “57-membered ring”, “catch-resin-ArSO2O-CH2CO-dTrp-Asp-MeSer-Gly-Asp-Pro-MeAla-Asp-Val-MeSer-Gly-Arg-MePhe-MeGly-Tyr-MePhe-Pro-Cys-Gly-NH2?” showed a ring closure, conversion of 50%.
In the case of “catch-resin-ArSO2O-CH2CO-dTrp-Asp-Pro-MeAla-Asp-Val-MeSer-Gly-Arg-MePhe-MeGly-Tyr-MePhe-Pro-Cys-Gly-NH2?”, the ring closure, conversion (48-membered ring) is 74%.
In turn, “catch-resin-ArSO2O-CH2CO-dTrp-Cys-Asp-Val-MeSer-Gly-Arg-MePhe-MeGly-Tyr-MePhe-Pro-Cys-Gly-NH2?” returned a ring closure, conversion (42-membered ring) of 28%.
The substance “catch-resin-ArSO2O-CH2CO-dTrp-Gly-Asp-Pro-MeAla-Asp-Val-MeSer-Gly-Arg-MePhe-MeGly-Tyr-MePhe-Pro-Cys-Gly-NH2?” displayed a ring closure, conversion (51-membered ring) of 51%.
In turn, “catch-resin-ArSO2O-CH2CO-dTrp-MeAla-Asp-Val-Cys-Gly-NH2?” showed a ring closure, conversion (18-membered ring) of 83%.
As for “catch-resin-ArSO2O-CH2CO-dTrp-MeAla-Asp-Val-MeSer-Cys-Gly-NH2?”, the ring closure, conversion (21-membered ring) was 66%.
In turn, “catch-resin-ArSO2O-CH2CO-dTrp-MeAla-Asp-Val-MeSer-Gly-Arg-Cys-Gly-NH2?” showed a ring closure, conversion (27-membered ring) of 98%.
Substance “catch-resin-ArSO2O-CH2CO-dTrp-MeAla-Asp-Val-MeSer-Gly-Arg-MePhe-MeGly-Cys-Gly-NH2?” showed a ring closure, conversion (33-membered ring) of 64%.
In the case of “catch-resin-ArSO2O-CH2CO-dTrp-MeAla-Asp-Val-MeSer-Gly-Arg-MePhe-MeGly-Tyr-Cys-Gly-NH2?”, under “36-membered ring”, the ring closure, conversion came out at 72%.
As for “catch-resin-ArSO2O-CH2CO-dTrp-MeAla-Asp-Val-MeSer-Gly-Arg-MePhe-MeGly-Tyr-MePhe-Pro-Cys-Gly-NH2?”, the ring closure, conversion (42-membered ring) was 50%.
For the substance “catch-resin-ArSO2O-CH2CO-dTrp-MeAla-Tyr-Asp-MeSer-Gly-Asp-Pro-MeAla-Asp-Val-MeSer-Gly-Arg-MePhe-MeGly-Tyr-MePhe-Pro-Cys-Gly-NH2?”, the ring closure, conversion (63-membered ring) was determined as 44%.
Turning to “catch-resin-ArSO2O-CH2CO-dTrp-MeSer-Gly-Asp-Pro-MeAla-Asp-Val-MeSer-Gly-Arg-MePhe-MeGly-Tyr-MePhe-Pro-Cys-Gly-NH2?”, the ring closure, conversion (54-membered ring) is 29%.
Substance “catch-resin-ArSO2O-CH2CO-dTrp-Pro-MeAla-Asp-Val-MeSer-Gly-Arg-MePhe-MeGly-Tyr-MePhe-Pro-Cys-Gly-NH2?” registered a ring closure, conversion (45-membered ring) of 33%.
For “catch-resin-ArSO2O-CH2CO-dTrp-Tyr-Asp-MeSer-Gly-Asp-Pro-MeAla-Asp-Val-MeSer-Gly-Arg-MePhe-MeGly-Tyr-MePhe-Pro-Cys-Gly-NH2?”, the ring closure, conversion (60-membered ring) came to 57%.

The values above are taken from US12018097.
